Measured values taken from US20220265619A1, “COMBINATION TREATMENT OF LIVER DISEASES USING FXR AGONISTS” (Novartis AG, priority 2019, published 2022).
Entries after “also recorded” stand apart in the source; their conditions may differ.

Columns and labels:
[1] = test system: human hepatocytes; assay: LDL uptake by in vitro human hepatocytes treated with FXR agonists; format: cell-based
Excerpt: To mitigate the increase in peripheric LDL, we hypothesize that treating the subjects in the evening (from about 6 pm to about […], e.g. from about 8 pm to about 11 pm, preferably around 9 pm) would be reduce the impact of the drug on LDL. […] In addition, during night time, the hepatocytes rely less on cholesterol coming from the food intake (LDL and others) since the body is then fasting but more on the intrahepatic production of cholesterol via HMGCOa reductase; the activity of this enzyme is the highest during the night. Indeed, in human, whilst the Cyp7A1 activity peak at 1 and 9 pm, intracellular cholesterol levels in hepatocytes are the highest during the night (between midnight and 4 AM).

[2] = Phase 2 dose range finding study of licogliflozin in obese patients (CLIK066B2201); format: in vivo, human; details: obese patients (placebo 19.2%)
Description: A dose of 30 mg QD is expected to achieve approximately 70% of maximum observed efficacy (using weight loss as a downstream marker for efficacy; CLIK066B2201). Licogliflozin is currently being tested as 30 mg and 150 mg QD monotherapy in NASH (CLIK066X2204). […] To minimize the risk of GI adverse effects of the SGLT1 inhibition in the gut such as diarrhea, licogliflozin will be administered in the evening.

[3] = Placebo-controlled, randomized Phase 2a study of licogliflozin in NASH patients, interim analysis (NCT03205150, CLIK066X2204); format: in vivo, human; details: for patients achieving at least 5% absolute reduction in liver fat: 12 weeks (placebo 18.8%); for proportion of patients with at least a 30% relative reduction in liver fat content: 12 weeks (placebo 25%); for patients reporting diarrhea (adverse event): 12 weeks (placebo 38.9%)
Description: METHOD: Patients with histologically confirmed NASH (F1-F3) or phenotypic NASH (BMI≥27 kg/m^2 in non-Asians or 23 kg/m^2 in Asians, ALT≥50 (males) or 35 (females) and type 2 diabetes (T2DM)) received daily oral licogliflozin at 150 mg, 30 mg or placebo in a 2:2:1 ratio for 12 weeks (NCT03205150). The primary endpoint is the effect on ALT level after 12 weeks of treatment. Secondary endpoints include improvement in body weight, liver fat content and AST, amongst others. The study size is 110 of which 77 have completed (placebo (n=18); licogliflozin 30 mg (n=25) and licogliflozin 150 mg (n=34)) and are included in the interim analysis.

[4] = Licogliflozin 2 week study in healthy subjects and patients with T2DM; format: in vivo, human
Description: (§1) i.e., (2S,3R,4R,5S,6R)-2-(3-((2,3-dihydrobenzo[b][1,4]dioxin-6-yl)methyl)-4-ethylphenyl)-6-(hydroxymethyl)tetrahydro-2H-pyran-3,4,5-triol. […] Licogliflozin at 150 mg daily dose results in a significant weight loss in obese patients (˜6%) after 12 week treatment.

[5] = Drug-drug interaction study of tropifexor and licogliflozin in healthy but overweight to obese subjects; format: in vivo, human
Description: Sixteen subjects with a BMI of 25 to 35 kg/m2 were enrolled. […] Standard safety assessments were performed, with adverse event monitoring. Steady state PK parameters from Period 1 or 2 (single agent PK) were compared with that from Period 3 (combination PK) to assess the effect of potential drug interaction.

[6] = Licogliflozin 150 mg daily, 12 week treatment in obese patients / normoglycemic and dysglycemic subjects; format: in vivo, human
Description: as §1

[7] = Dose finding study of licogliflozin in Japanese patients with obesity disease; format: in vivo, human; details: for placebo-subtracted percentage change in body weight from baseline at Week 12: Japanese patients with obesity disease
Description: This study was a randomized, double-blind, placebo controlled, dose finding study to evaluate the effect of licogliflozin (2.5, 10, 25 and 50 mg qd) in 126 Japanese patients with obesity disease. The primary objective was to examine the dose-response relationship of licogliflozin treatment in body weight reduction relative to placebo at 12 weeks. The secondary objectives included assessment of responder rates, change in parameters related to complications, visceral and subcutaneous fat area, and safety through 12 weeks of treatment.

[8] = NASH patients; cited from earlier work
[9] = FLIGHT-FXR (NCT02855164) Part C interim analysis, tropifexor in fibrotic NASH; format: in vivo, human; details: for ALT, LS mean absolute change (SE) from baseline to Week 12: placebo −8.9 (4.19); for GGT, LS mean absolute change (SE) from baseline to Week 12: placebo −2.5 (3.55); for Body weight, LS mean absolute change (SE) from baseline to Week 12: placebo −1.14 (0.36)
[10] = Tropifexor in NASH patients, Parts A and B of study CLJN452A2202
[11] = licogliflozin 50 mg in the presence of tropifexor 140 μg vs alone
[12] = 200 μg once daily, n = 46, P < 0.001
[13] = tropifexor 140 μg in the presence of licogliflozin 50 mg vs alone
[14] = 10 to 90 μg daily for 12 weeks, NASH patients
[15] = all doses (10, 30, 60 and 90 μg), 12 weeks

## O=C(O)c1ccnc(N2CC(O)(c3ccc(OCc4c(-c5c(Cl)cccc5Cl)noc4C4CC4)cc3Cl)C2)c1 [cilofexor]
[1]; FIG. 5
  LDL uptake by hepatocytes: reduce the LDL uptake by hepatocytes in a dose dependent manner; also recorded: decreased LDL uptake

## CCc1ccc([C@@H]2O[C@H](CO)[C@@H](O)[C@H](O)[C@H]2O)cc1Cc1ccc2c(c1)OCCO2 [licogliflozin, (2S,3R,4R,5S,6R)-2-(3-((2,3-dihydrobenzo[b][1,4]dioxin-6-yl)methyl)-4-ethylphenyl)-6-(hydroxymethyl)tetrahydro-2H-pyran-3,4,5-triol]
[2]; 2.5 mg QD for 24 weeks
  incidence of diarrhea: 18.4%
[2]; 10 mg QD for 24 weeks
  incidence of diarrhea: 15.8%
[2]; 50 mg QD for 24 weeks
  incidence of diarrhea: 55.3%
[2]; 150 mg QD for 24 weeks
  incidence of diarrhea: 68.8%
[3]; 30 mg daily oral, 12 weeks, p=NS
  placebo adjusted reduction from baseline levels of ALT: 19%
[3]; 30 mg
  patients achieving at least 5% absolute reduction in liver fat: 43.5%
  proportion of patients with at least a 30% relative reduction in liver fat content: 39.5%
  patients reporting diarrhea (adverse event): 40%
[3]; 30 mg, 12 weeks, p=0.001
  placebo adjusted reduction in HbA1c (absolute change): 0.81%
[3]; 30 mg, 12 weeks, p=0.014
  reduction in GGT: 26%
[3]; 30 mg, 12 weeks, p=0.043
  reduction in AST: 23%
[3]; 30 mg, 12 weeks, p=NS
  absolute reduction in liver fat: 2.71%
  relative reduction in liver fat content: 10%
[3]; 150 mg QD monotherapy in NASH
  ALT and liver fat, interim analysis: promising reduction of ALT and liver fat
  gastrointestinal events (mainly diarrhea), interim analysis: significant incidence of gastrointestinal events
[3]; 150 mg daily oral, 12 weeks, p=0.036
  placebo adjusted reduction from baseline levels of ALT: 27%
[3]; 150 mg
  patients achieving at least 5% absolute reduction in liver fat: 63.3%
  proportion of patients with at least a 30% relative reduction in liver fat content: 66.7%
  patients reporting diarrhea (adverse event): 76.5%
[3]; 150 mg, 12 weeks, p=0.0001
  placebo adjusted reduction in HbA1c (absolute change): 0.96%
[3]; 150 mg, 12 weeks, p=0.001
  reduction in GGT: 32%
[3]; 150 mg, 12 weeks, p=0.004
  reduction in AST: 30%
[3]; 150 mg, 12 weeks, p=0.01
  absolute reduction in liver fat: 4.45%
  relative reduction in liver fat content: 22%
[3]; 12 weeks of treatment, NASH patients
  safety and tolerability: safe and tolerable
[3]; all diarrhea events of the study
  diarrhea events that were mild: 97.4%
[3]; both doses (150 mg and 30 mg), 12 weeks, p=0.0001
  placebo adjusted reduction in body weight: ~4%
[4]
  pharmacokinetic profile: favorable pharmacokinetic profile
  safety and tolerability: safe and tolerated
[4]; over 2 weeks
  placebo-adjusted weight loss: up to 3%
[5]; [11]
  increase of mean peak plasma concentration: 8%
  increase of total exposure: 12%
[6]; 150 mg daily dose, obese patients, after 12 week treatment
  weight loss: ~6%
[6]; 150 mg once daily, twelve weeks, normoglycemic and dysglycemic subjects
  safety and tolerability: generally safe and well tolerated with diarrhea observed as a dose-limiting toxicity
[7]; 2.5 mg qd
  placebo-subtracted percentage change in body weight from baseline at Week 12: −1.99%
[7]; 10 mg qd
  placebo-subtracted percentage change in body weight from baseline at Week 12: −3.00%
[7]; 25 mg qd
  placebo-subtracted percentage change in body weight from baseline at Week 12: −3.54%
[7]; 50 mg qd
  placebo-subtracted percentage change in body weight from baseline at Week 12: −3.91%
[7]; 2.5, 10, 25 and 50 mg qd over 12 weeks
  safety: safe with no ketoacidosis and no new safety signals
[7]; 2.5, 10, 25 and 50 mg qd, 12 weeks
  body weight, dose dependence: dose-dependent reduction in body weight
[7]; 10, 25 and 50 mg qd dose groups (placebo 7.1%; p≤0.002 for all)
  patients achieving reduction of ≥3% in body weight: ≥ 50%

## CC[C@H]1[C@@H](O)[C@@H]2[C@H](CC[C@]3(C)[C@@H]([C@H](C)CCC(=O)O)CC[C@@H]23)[C@@]2(C)CC[C@@H](O)C[C@@H]12 [obeticholic acid, 6α-ethyl-chenodeoxycholic acid]
[1]; FIG. 5
  LDL uptake by hepatocytes: reduce the LDL uptake by hepatocytes in a dose dependent manner
[1]; FIG. 5, listed as OCA
  LDL uptake by hepatocytes: decreased LDL uptake
[8]
  safety on long term administration: associated with pruritus, as well as with lipid abnormalities

## O=C(O)c1cc(F)c2nc(N3C4CC[C@H]3CC(OCc3c(-c5ccccc5OC(F)(F)F)noc3C3CC3)C4)sc2c1 (stereo partly drawn) [tropifexor, 2-[(1R,3r,5S)-3-({5-cyclopropyl-3-[2-(trifluoromethoxy)phenyl]-1,2-oxazol-4-yl}methoxy)-8-azabicyclo[3.2.1]octan-8-yl]-4-fluoro-1,3-benzothiazole-6-carboxylic acid]
[9]; 140 μg and 200 μg
  low density lipoprotein-cholesterol (LDL-C): dose-related increase
[9]; 140 μg and 200 μg vs placebo
  frequency of serious adverse events: low and comparable across groups
[9]; 140 μg once daily, n = 41, P = 0.058
  ALT, LS mean absolute change (SE) from baseline to Week 12: −20.1 (4.57) U/L
[9]; 140 μg once daily, n = 44, P < 0.001
  GGT, LS mean absolute change (SE) from baseline to Week 12: −39.2 (3.70) U/L
[9]; 140 μg once daily, n = 46, P = 0.010
  Body weight, LS mean absolute change (SE) from baseline to Week 12: −2.46 (0.38) kg
[9]; 140 μg, n=1 (placebo 0%)
  treatment discontinuation rate due to pruritus: 2%
[9]; 200 μg once daily
  pre-specified endpoints at week 12: met
[9]; 200 μg once daily, n = 39, P = 0.013
  ALT, LS mean absolute change (SE) from baseline to Week 12: −23.6 (4.48) U/L
[9]; [12]
  Body weight, LS mean absolute change (SE) from baseline to Week 12: −3.20 (0.37) kg
  GGT, LS mean absolute change (SE) from baseline to Week 12: −40.9 (3.62) U/L
[9]; 200 μg, n=3 (placebo 0%)
  treatment discontinuation rate due to pruritus: 6%
[9]; both Tropifexor groups (140 μg, 200 μg)
  patients with pruritus whose events had mild (Grade 1) severity: > 60%
[9]; higher doses (140 μg, 200 μg)
  ALT, HFF, and body weight after 12 weeks: robust and dose-dependent decreases
  safety and tolerability after 12 weeks: good safety and tolerability
[5]; [13]
  decrease of mean peak plasma concentration (Cmax,ss): 15%
  decrease of total exposure (AUCtau,ss): 12%
[10]; [14]
  biologic activity (GGT): clear dose response
  target engagement (FGF19): clear dose response
[10]; [15]
  ALT compared to placebo: reduced across all tropifexor doses
  hepatic fat fraction compared to placebo: reduced across all tropifexor doses
[10]; up to 90 μg daily
  tolerability: generally well tolerated up to 90 μg daily without safety signals
